According to US20050064470A1, “High throughput screening methods for identifying RNA binding compounds” (priority 2003, published 2005):

What was measured:
[1] = target: bulge-deleted (mut) TAR RNA; test: Fluorescence polarization anisotropy (FPA) binding to fluorescein-labeled bulge-deleted TAR RNA; parameters: species or system HIV-1; settings: for Kd: FPA, 20 mM KCl, fluorescein-tagged bulge-deleted TAR RNA, room temperature
Procedure: (§1) β-Peptide and mutant β-peptide binding affinities to TAR RNA were measured by fluorescence anisotropy method on a PTI (Photon Technology International) fluorescence spectrophotometer. A T-format setup based on two emission channels was used. The intensities of the parallel and perpendicular components simultaneously were obtained in one measurement using two separate detectors. The excitation side is a motorized Glan-Thompson polarizer and emission sides are two film polarizers placed in vertical and horizontal orientation, respectively. The anisotropy can be calculated from equation 1, [formula] • where III and I⊥ are fluorescence intensities observed when the emission polarizer is oriented parallel and perpendicular to the direction of the polarized excitation, respectively.
(§2) The fluorescein-labeled TAR RNA (F-TAR, either wt TAR or bulge-less TAR, see FIG. 1) was excited at 490 nm and two polarized emissions were monitored at 512 nm. The slits were set at 8 nm for both excitation and emission light. The integration time was 20 seconds. All data were measured in a Sub-Micro cuvette (Starna Cell, Inc.) with a starting volume of 160 μL. Each addition of β-peptide/mutant β-peptide was followed by one-minute equilibration before the fluorescence signal was recorded. All experiments were done at room temperature and in a TKT buffer (TKT: 50 mM Tris-HCl, pH=7.4, 20 mM KCl and 0.02% Tween20). The initial concentration of F-TAR was around 25 nM. The stock concentration of β-peptide/mutant β-peptide for titration was 2 μM. The experiment was repeated three times independently. For every single point, five measurements were made and their average anisotropy value was used for calculation of the KD.
(§3) The binding dissociation constant (KD) is determined by fitting the plot of anisotropy of F-TAR versus the concentration of the β-peptide using equation 3, [formula] • where A is the relative fluorescence anisotropy of dye-labeled TAR RNA. The capacity for binding, Cap, is the maximum binding ability of a small molecule. C is the total concentration of β-peptide added. a is a correction factor.

wild-type TAR RNA = test: Fluorescence polarization anisotropy (FPA) binding to fluorescein-labeled wild-type TAR RNA; parameters: species or system HIV-1; settings: for Kd / specificity for wild-type TAR over bulgeless TAR (in words) / affinity for TAR RNA (in words): FPA; for Kd: 20 mM KCl, fluorescein-tagged wild-type TAR RNA, room temperature, read-out: Kd wt TAR; for specificity for wild-type TAR over bulgeless TAR (in words): wild-type vs bulge-deleted TAR; for Binding Specificity (Kd (mutTAR)/Kd (wtTAR)): ratio of Kd for bulge-deleted TAR to Kd for wild-type TAR, in text as fold decrease of affinity
Procedure: as §1, §2, §3

Substance	Kd [1] [nM]	Kd (wild-type TAR RNA) [nM]	specificity for wild-type TAR over bulgeless TAR (in words) (wild-type TAR RNA)	Binding Specificity (Kd (mutTAR)/Kd (wtTAR)) (wild-type TAR RNA)	affinity for bulgeless TAR reduced compared to α-peptide 3 ([1]; compared to α-peptide 3)	affinity for TAR RNA (in words) (wild-type TAR RNA)	affinity for wild-type TAR lower than that of α-peptide 3 (wild-type TAR RNA; compared to α-peptide 3)	Binding Specificity (Kd (mutTAR)/Kd (wtTAR)) (wild-type TAR RNA; listed as β-peptide 1)	dissociation constant ratio (Krel) relative to α-peptide 3 (wild-type TAR RNA; value above 1.0 denotes stronger binding of the analogue relative to the native peptide)
N-Tyr-Gly-Arg-Lys-Lys-Arg-Arg-Gln-Arg-Arg-Arg [α-TatR 3, reference compound]	1.1 ± 0.2	1.8 ± 0.5	little specificity	1					
β-amino acid oligomer (β-peptide) analogue of Tat 47-57 (YGRKKRRQRRR, SEQ ID NO:1) [wt β-peptide 1]	281 ± 68	28 ± 4	enhanced specificity	10	more than two orders of magnitude	nanomolar affinity	roughly 15 fold	about 10	0.072
β-peptide in which all arginine side chains have been replaced by lysine side chains (YGKKKKKQKKK; SEQ ID NO:2) [mut β-peptide 2]	33 ± 2	16 ± 2	less specificity	2		high affinity			
